Laboratory results taken from ChEMBL document CHEMBL4334494, “Recent advances in the targeting of human DNA ligase I as a potential new strategy for cancer treatment” (Eur J Med Chem, 2019).

Assays:
HCT-116 = experiment: Antiproliferative activity against human HCT116 cells at 100 uM relative to control; type: functional
DLD-1 = experiment: Antiproliferative activity against human DLD1 cells at 100 uM relative to control; type: functional
MDA-MB-231 = experiment: Antiproliferative activity against human MDA-MB-231 cells at 100 uM relative to control; type: functional
A549 = experiment: Antiproliferative activity against human A549 cells at 100 uM relative to control; type: functional
HEK293 = experiment: Cytotoxicity against HEK293 cells at 100 uM relative to control; type: cell-based; conditions: human, hek293, 100 µM
HepG2 = experiment: Antiproliferative activity against human HepG2 cells at 100 uM relative to control; type: functional
DNA ligase 1 [1] = biological target: T1, DNA ligase 1 (Homo sapiens, UniProt P18858); experiment: Inhibition of human DNA ligase 1 expressed in Escherichia coli BL21DE3RP cells at 50 uM using 52-mer DNA/25-mer DNA/27-mer DNA as substrate after 30 mins by Cyanin3 dye-based fluorescence assay relative to control
T1 sequence (P18858 whole entry): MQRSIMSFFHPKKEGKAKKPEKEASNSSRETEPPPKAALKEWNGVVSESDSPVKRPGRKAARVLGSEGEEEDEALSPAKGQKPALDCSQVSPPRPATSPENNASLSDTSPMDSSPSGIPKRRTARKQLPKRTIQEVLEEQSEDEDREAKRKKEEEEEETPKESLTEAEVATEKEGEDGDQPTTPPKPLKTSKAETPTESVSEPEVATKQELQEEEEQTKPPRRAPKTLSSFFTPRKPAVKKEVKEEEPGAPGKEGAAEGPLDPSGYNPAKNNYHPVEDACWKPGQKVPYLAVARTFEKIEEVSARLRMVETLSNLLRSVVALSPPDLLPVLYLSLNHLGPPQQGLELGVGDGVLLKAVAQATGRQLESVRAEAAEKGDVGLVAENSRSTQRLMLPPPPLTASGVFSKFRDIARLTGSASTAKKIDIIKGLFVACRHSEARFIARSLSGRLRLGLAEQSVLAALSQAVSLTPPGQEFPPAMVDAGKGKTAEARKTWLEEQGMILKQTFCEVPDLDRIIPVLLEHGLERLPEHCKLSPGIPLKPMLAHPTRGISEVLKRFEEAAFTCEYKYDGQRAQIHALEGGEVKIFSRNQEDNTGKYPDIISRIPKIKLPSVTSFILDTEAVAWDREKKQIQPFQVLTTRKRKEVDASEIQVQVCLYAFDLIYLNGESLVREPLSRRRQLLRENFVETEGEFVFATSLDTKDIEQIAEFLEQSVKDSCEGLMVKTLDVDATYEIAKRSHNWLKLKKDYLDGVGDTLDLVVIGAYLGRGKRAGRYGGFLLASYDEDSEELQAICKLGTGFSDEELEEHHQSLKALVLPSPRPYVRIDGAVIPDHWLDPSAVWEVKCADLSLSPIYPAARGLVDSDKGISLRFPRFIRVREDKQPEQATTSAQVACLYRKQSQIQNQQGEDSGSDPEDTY

DNA ligase 1 [2] = biological target: T1, DNA ligase 1; experiment: Inhibition of human DNA ligase 1 at 50 uM using 52-mer DNA/25-mer DNA/27-mer DNA as substrate by fluorescence assay relative to control
DNA ligase 1 [3] = biological target: T1, DNA ligase 1; experiment: Inhibition of human DNA ligase 1 at 25 uM using nicked DNA as substrate after 30 mins relative to control

With `CCOC(=O)C1=C(C)NC(=O)NC1c1cc(/C=N/NC(N)=S)c(O)c(C(C)(C)C)c1` (stereo unspecified) the inhibition at 100 µM (HCT-116) was > 80%, the inhibition at 100 µM (DLD-1) was > 80% and the inhibition at 100 µM (MDA-MB-231) was > 80%. For the same molecule, the inhibition at 100 µM (A549) was > 80%, the Activity (HEK293) was > 80% and the inhibition at 100 µM (HepG2) was > 80%.
For `CCOC(=O)C1=C(C)NC(=O)NC1c1cc(/C=N/NC(=O)Nc2ccc(Br)cc2)c(O)c(C(C)(C)C)c1` (stereo unspecified), the inhibition at 100 µM (HCT-116) was > 80%, the inhibition at 100 µM (DLD-1) was > 80% and the inhibition at 100 µM (MDA-MB-231) was > 80%. For the same molecule, the inhibition at 100 µM (A549) was > 80%, the Activity (HEK293) was > 80% and the inhibition at 100 µM (HepG2) was > 80%.
`CCOC(=O)C1=C(C)NC(=O)NC1c1cc(/C=N/NC(=O)Nc2cccc(OC)c2)c(O)c(C(C)(C)C)c1` (stereo unspecified) was tested, and the inhibition at 100 µM (HCT-116) was > 80%, the inhibition at 100 µM (DLD-1) was > 80% and the inhibition at 100 µM (MDA-MB-231) was > 80%. The inhibition at 100 µM (A549) was > 80%, the Activity (HEK293) was > 80% and the inhibition at 100 µM (HepG2) was > 80%.
`CCOC(=O)C1=C(C)NC(=O)NC1c1cc(/C=N/NC(=S)NC)c(O)c(C(C)(C)C)c1` (stereo unspecified) was tested, and the inhibition at 100 µM (HCT-116) was > 80%, the inhibition at 100 µM (DLD-1) was > 80% and the inhibition at 100 µM (MDA-MB-231) was > 80%. For the same molecule, the inhibition at 100 µM (A549) was > 80%, the Activity (HEK293) was > 80% and the inhibition at 100 µM (HepG2) was > 80%.
In the case of `Cc1ccccc1/C=C1\CN(C(=S)Nc2ccccc2)C/C(=C\c2ccccc2C)C1=O`, the inhibition (DNA ligase 1 [1]) is reported as > 75%.
For `COC(=O)N1CCN(CC(=O)Nc2cc(C)nc3ccc(NC(=O)Nc4ccc(Br)cc4)cc23)CC1`, the inhibition (DNA ligase 1 [2]) was 10.8%.
With `CCCCNC(=S)N1C/C(=C\c2ccc(OC)cc2)C(=O)/C(=C/c2ccc(OC)cc2)C1` the inhibition (DNA ligase 1 [1]) was > 75%.
With `CCOC(=O)C1=C(C)NC(=S)NC1c1cc(C)c(O)c(/C=N/NC(=O)Nc2ccc(Cl)cc2)c1` (stereo unspecified) the inhibition at 100 µM (HCT-116) was > 80%, the inhibition at 100 µM (DLD-1) was > 80% and the inhibition at 100 µM (MDA-MB-231) was > 80%. The inhibition at 100 µM (A549) was > 80%, the Activity (HEK293) was > 80% and the inhibition at 100 µM (HepG2) was > 80%.
With `CCOC(=O)C1=C(C)NC(=O)NC1c1cc(/C=N/NC(=S)Nc2ccccc2)c(O)c(C(C)(C)C)c1` (stereo unspecified) the inhibition at 100 µM (HCT-116) was > 80%, the inhibition at 100 µM (DLD-1) was > 80% and the inhibition at 100 µM (MDA-MB-231) was > 80%. The inhibition at 100 µM (A549) was > 80%, the Activity (HEK293) was > 80% and the inhibition at 100 µM (HepG2) was > 80%.
With `COc1ccc(/C=C/c2cc(=O)oc3c2ccc2ccccc23)c(OC)c1` the inhibition (DNA ligase 1 [3]) was < 50%.
With `CCOC(=O)C1=C(C)NC(=O)NC1c1cc(C)c(O)c(/C=N/NC(N)=S)c1` (stereo unspecified) the inhibition at 100 µM (HCT-116) was > 80%, the inhibition at 100 µM (DLD-1) was > 80% and the inhibition at 100 µM (MDA-MB-231) was > 80%. The inhibition at 100 µM (A549) was > 80%, the Activity (HEK293) was > 80% and the inhibition at 100 µM (HepG2) was > 80%.
`O=C1/C(=C/c2ccc(F)cc2)CN(C(=S)Nc2ccccc2)C/C1=C\c1ccc(F)cc1` was tested, and the inhibition (DNA ligase 1 [1]) was > 75%.
With `CCOC(=O)C1=C(C)NC(=S)NC1c1cc(/C=N/NC(=S)Nc2ccc(Cl)cc2)c(O)c(C(C)(C)C)c1` (stereo unspecified) the inhibition at 100 µM (HCT-116) was < 80%, the inhibition at 100 µM (DLD-1) was < 80% and the inhibition at 100 µM (MDA-MB-231) was < 80%. The inhibition at 100 µM (A549) was < 80%, the Activity (HEK293) was < 80% and the inhibition at 100 µM (HepG2) was < 80%.
In the case of `COc1ccc(/C=C/c2cc(=O)oc3c2ccc2c(OC)cccc23)cc1`, the inhibition (DNA ligase 1 [3]) is reported as < 50%.
For `COc1cc(/C=C/c2cc(=O)oc3c2ccc2c(C)cccc23)cc(OC)c1`, the inhibition (DNA ligase 1 [3]) was > 50%.
With `COc1ccc(NC(=O)Nc2ccc3nc(C)cc(NC(=O)c4ccccc4Cl)c3c2)cc1` the inhibition (DNA ligase 1 [2]) was 12.2%.
`COc1ccc(N2C(=O)C3C4C=CC(CNC(=S)Nc5ccc(OC)cc5[N+](=O)[O-])(O4)C3C2=O)cc1` (stereo unspecified) gave an inhibition (DNA ligase 1 [2]) of 65%.
Work on `COc1cccc(NC(=S)NCC23C=CC(O2)C2C(=O)N(c4ccccc4Cl)C(=O)C23)c1` (stereo unspecified) yielded an inhibition (DNA ligase 1 [2]) of 22.4%.
In the case of `CCOC(=O)C1=C(C)NC(=S)NC1c1cc(/C=N/NC(=S)Nc2ccccc2)c(O)c(C(C)(C)C)c1` (stereo unspecified), the inhibition at 100 µM (HCT-116) is reported as < 80%, the inhibition at 100 µM (DLD-1) is reported as < 80% and the inhibition at 100 µM (MDA-MB-231) is reported as < 80%. The inhibition at 100 µM (A549) was < 80%, the Activity (HEK293) was < 80% and the inhibition at 100 µM (HepG2) was < 80%.
`COc1ccc(/C=C/c2cc(=O)oc3c2ccc2c(OC)cccc23)cc1OC` was tested, and the inhibition (DNA ligase 1 [3]) was > 50%.
In the case of `COc1ccc(/C=C2\CN(c3nc(-c4ccccc4)cs3)C/C(=C\c3ccc(OC)cc3)C2=O)cc1`, the inhibition (DNA ligase 1 [1]) is reported as > 75%.
In the case of `CCOC(=O)C1=C(C)NC(=O)NC1c1cc(/C=N/NC(=O)Nc2ccc(F)cc2)c(O)c(C(C)(C)C)c1` (stereo unspecified), the inhibition at 100 µM (HCT-116) is reported as > 80%, the inhibition at 100 µM (DLD-1) is reported as > 80% and the inhibition at 100 µM (MDA-MB-231) is reported as > 80%. The inhibition at 100 µM (A549) was > 80%, the Activity (HEK293) was > 80% and the inhibition at 100 µM (HepG2) was > 80%.
`COc1cccc(OC)c1/C=C/c1cc(=O)oc2c1ccc1c(OC)cccc12` was tested, and the inhibition (DNA ligase 1 [3]) was < 50%.
With `N#Cc1ccc(/C=C/c2cc(=O)oc3c2ccc2ccccc23)cc1` the inhibition (DNA ligase 1 [3]) was < 50%.
With `O=c1cc(/C=C/c2ccc([N+](=O)[O-])cc2)c2ccc3ccccc3c2o1` the inhibition (DNA ligase 1 [3]) was > 90%.
With `Cc1cccc2c1ccc1c(/C=C/c3ccccc3)cc(=O)oc12` the inhibition (DNA ligase 1 [3]) was < 50%.
In the case of `COc1ccccc1/C=C/c1cc(=O)oc2c1ccc1c(C)cccc12`, the inhibition (DNA ligase 1 [3]) is reported as < 50%.
In the case of `COc1cc(/C=C/c2cc(=O)oc3c2ccc2ccccc23)cc(OC)c1OC`, the inhibition (DNA ligase 1 [3]) is reported as < 50%.
For `COc1ccc(OC)c(/C=C/c2cc(=O)oc3c2ccc2ccccc23)c1`, the inhibition (DNA ligase 1 [3]) was < 50%.
With `COc1ccc(/C=C/c2cc(=O)oc3c2ccc2c(C)cccc23)c(OC)c1` the inhibition (DNA ligase 1 [3]) was > 90%.
With `CC(C)c1ccc(/C=C2\CN(c3nc(-c4ccccc4)cs3)C/C(=C\c3ccc(C(C)C)cc3)C2=O)cc1` the inhibition (DNA ligase 1 [1]) was > 75%.
